Data as given in a compilation of properties of binary mixtures (doi:10.1016/j.molliq.2020.112644).

Test: xn = mol fraction of the nth substance listed
Conditions: 100 kPa, x2 = 0.571

## O=C1c2ccccc2C(=O)C1(O)O + CCCC[N+](CCCC)(CCCC)CCCC.O=S(=O)([O-])O
293.15 K
  speed of sound: 2074.6 m/s
298.15 K
  speed of sound: 2026.2 m/s
303.15 K
  speed of sound: 1974.8 m/s
308.15 K
  electrical conductivity: 0.0001 S/m
  speed of sound: 1920.7 m/s
313.15 K
  electrical conductivity: 0.0002 S/m
  speed of sound: 1859 m/s
318.15 K
  electrical conductivity: 0.0003 S/m
  speed of sound: 1802.5 m/s
323.15 K
  electrical conductivity: 0.0006 S/m
  speed of sound: 1740.4 m/s
  viscosity: 48000 mPa·s
333.15 K
  electrical conductivity: 0.0018 S/m
  speed of sound: 1629.2 m/s
  viscosity: 15800 mPa·s
338.15 K
  viscosity: 11000 mPa·s
